Patent US9771334B2, “Triketone compound and preparation method and use thereof” (SHANDONG CYNDA CHEMICAL CO., LTD., priority 2013, dated 2017)

Columns and labels:
Assay in all cases: Herbicidal activity, pot culture method (primary and secondary screening test)
Format in all cases: in vivo
Details in all cases: primary screening, pot culture, 150 g/ha, sprayed at 3-leaf stage, result 15 days later
abutilon theophrasti = test system: abutilon theophrasti
From the text: (§1) This test example is for describing the herbicidal activity inhibition ratio (%) (the dose is 150 g/ha) of the compound with a structure shown in Formula (I). Primary screening test (pot culture method): The test targets are abutilon theophrasti, digitaria sanguinalis, amaranthus retroflexus, echinochloa crusgalli, eclipta prostrata and setaria viridis. Take flowerpots with an inner diameter of 6 cm, put composite soil (vegetable garden soil:seedling matrix=1:2, v/v) into them till 3⁄4 of flowerpot height, directly sow the above six weed targets (budding rate>85%), cover them with 0.2 cm thick soil, and keep them for future use when the weeds grow to 3-leaf stage. Each compound is dissolved in N,N-dimethylformamide at a dose of 150 g/ha and diluted with distilled water into a 0.2 g/L solution. The solution is sprayed through an automatic spray tower. After the solution on weed leaves is aired dry, the flowerpots are moved into a greenhouse for cultivation. The result is investigated 15 days later. By the same method adopted in primary screening test, a secondary screening test is done on some typical compounds, such as: 5, 6, 20, 21, 23, 34, 47, 65, 66, 70 and 91 at a reduced dose, and the test result is compared with mesotrione which is commercially available and has a good herbicidal effect. The test method is same as that adopted in primary screening test. Mesotrione is bought from Hubei […] Chemical Co., Ltd.

amaranthus retroflexus = test system: amaranthus retroflexus
From the text: as §1

digitaria sanguinalis = test system: digitaria sanguinalis
From the text: as §1

echinochloa crusgalli = test system: echinochloa crusgalli
From the text: as §1

eclipta prostrata = test system: eclipta prostrata
From the text: as §1

setaria viridis = test system: setaria viridis
From the text: as §1

| SMILES | herbicidal activity inhibition ratio (%), Abutilon theophrasti (abutilon theophrasti) [%] | herbicidal activity inhibition ratio (%), Amaranthus retroflexus (amaranthus retroflexus) [%] | herbicidal activity inhibition ratio (%), Digitaria sanguinalis (digitaria sanguinalis) [%] | herbicidal activity inhibition ratio (%), Echinochloa crusgalli (echinochloa crusgalli) [%] | herbicidal activity inhibition ratio (%), Eclipta prostrata (eclipta prostrata) [%] | herbicidal activity inhibition ratio (%), Setaria viridis (setaria viridis) [%] |
| --- | --- | --- | --- | --- | --- | --- |
| Cn1c(=O)n(-c2ccccc2Br)c(=O)c2cc(C(=O)C3=C(O)CCCC3=O)ccc21 [Compound 27] | 83 | 100 | 90 | 90 | 80 | 60 |
| Cn1c(=O)n(-c2ccccc2Br)c(=O)c2cc(C(=O)C3=C(O)CC(C)(C)CC3=O)ccc21 [Compound 28] | 100 | 95 | 95 | 85 | 83 | 35 |
| COc1ccccc1-n1c(=O)c2cc(C(=O)C3=C(O)CCCC3=O)ccc2n(C)c1=O [Compound 29] | 90 | 100 | 88 | 90 | 65 | 60 |
| Cn1c(=O)n(-c2ccc(C(F)(F)F)cc2)c(=O)c2cc(C(=O)C3=C(O)CCCC3=O)ccc21 [Compound 30] | 100 | 100 | 60 | 85 | 60 | 30 |
| Cn1c(=O)n(-c2ccc(C(F)(F)F)cc2)c(=O)c2cc(C(=O)C3=C(O)CC(C)(C)CC3=O)ccc21 [Compound 31] | 60 | 80 | 60 | 40 | 55 | 10 |
| Cn1c(=O)n(-c2c(Cl)cccc2Cl)c(=O)c2cc(C(=O)C3=C(O)CCCC3=O)ccc21 [Compound 32] | 80 | 85 | 80 | 80 | 50 | 40 |
| Cc1ccc(Cl)cc1-n1c(=O)c2cc(C(=O)C3=C(O)CCCC3=O)ccc2n(C)c1=O [Compound 33] | 85 | 90 | 80 | 85 | 83 | 60 |
| Cn1c(=O)n(-c2ccccc2)c(=O)c2cc(C(=O)C3=C(O)CCCC3=O)ccc21 [Compound 35] | 80 | 100 | 65 | 65 | 70 | 50 |
| CC(C)c1ccc(-n2c(=O)c3cc(C(=O)C4=C(O)CCCC4=O)ccc3n(C)c2=O)cc1 [Compound 36] | 50 | 35 | 100 | 25 | 0 | 50 |
| Cc1ccc(Cl)cc1-n1c(=O)c2cc(C(=O)C3=C(O)CC(C)(C)CC3=O)ccc2n(C)c1=O [Compound 37] | 65 | 95 | 83 | 80 | 80 | 40 |
| Cn1c(=O)n(-c2ccccc2C(F)(F)F)c(=O)c2cc(C(=O)C3=C(O)CCCC3=O)ccc21 [Compound 38] | 90 | 100 | 85 | 90 | 75 | 80 |
| Cn1c(=O)n(-c2ccccc2OC(F)(F)F)c(=O)c2cc(C(=O)C3=C(O)CCCC3=O)ccc21 [Compound 39] | 95 | 98 | 85 | 70 | 85 | 80 |
| Cn1c(=O)n(-c2ccccc2)c(=O)c2cc(C(=O)C3=C(O)CC(C)(C)CC3=O)ccc21 [Compound 40] | 100 | 95 | 85 | 78 | 80 | 45 |
| Cn1c(=O)n(-c2ccccc2C(F)(F)F)c(=O)c2cc(C(=O)C3=C(O)CC(C)(C)CC3=O)ccc21 [Compound 41] | 100 | 95 | 85 | 73 | 80 | 25 |
| CC1CC(=O)C(C(=O)c2ccc3c(c2)c(=O)n(-c2ccccc2)c(=O)n3C)=C(O)C1 (stereo not drawn) [Compound 42] | 98 | 100 | 93 | 88 | 83 | 60 |
| CCn1c(=O)n(-c2ccc(Cl)cc2)c(=O)c2cc(C(=O)C3=C(O)CCCC3=O)ccc21 [Compound 43] | 65 | 98 | 60 | 80 | 83 | 50 |
| Cn1c(=O)n(-c2cccc3ccccc23)c(=O)c2cc(C(=O)C3=C(O)CCCC3=O)ccc21 [Compound 44] | 85 | 100 | 75 | 65 | 0 | 60 |
| Cn1c(=O)n(-c2ccc([N+](=O)[O-])cc2)c(=O)c2cc(C(=O)C3=C(O)CCCC3=O)ccc21 [Compound 45] | 60 | 90 | 40 | 50 | 83 | 10 |
| CC(C)c1cccc(C(C)C)c1-n1c(=O)c2cc(C(=O)C3=C(O)CCCC3=O)ccc2n(C)c1=O [Compound 46] | 35 | 100 | 55 | 60 | 70 | 20 |
| COc1ccccc1-n1c(=O)c2cc(C(=O)C3=C(O)CC(C)(C)CC3=O)ccc2n(C)c1=O [Compound 48] | 50 | 95 | 85 | 85 | 85 | 50 |
| Cn1c(=O)n(-c2ccc(OC(F)(F)F)cc2)c(=O)c2cc(C(=O)C3=C(O)CC(C)(C)CC3=O)ccc21 [Compound 49] | 100 | 95 | 90 | 65 | 80 | 50 |
